Results: patent US10023593B2, “ALK kinase inhibitor, and preparation method and uses thereof” (BEIJING PEARL BIOTECHNOLOGY LIMITED LIABILITY COMPANY, priority 2014, dated 2018)

Legend:
Wild Type ALK kinase = target: T1, Wild Type ALK kinase (Homo sapiens, UniProt Q9UM73); test: HTRF KinEASE-TK assay, inhibitory activity on wild type ALK kinase; assay type: biochemical; conditions: wild type ALK 1 ng/μl, substrate 1 μM, 30° C. 35 minutes, read-out: Inhibition on ALK kinases (wildtype), IC50
T1 construct: purchased Sino-US Crown Bioscience, Inc. batch number ALK 20110607
Text: 1. Inhibitory Activities of the Compounds of the Present Invention on Wild Type ALK Kinases
? experimental method ? HTRF KinEASE™-TK Assay kit from Cisbio company was used to detect inhibitory activities of the compounds on wildtype ALK kinases (wild type ALK kinases).
(§1) ? instrument ? Envision 2104 plate reader from PerKinElmer company.
(§2) ? experiment material ? HTRF KinEASE™-TK Assay Kit (Cisbio company, catalog No. 62TK0PEC); Wild Type ALK kinase (produced by Sino-US Crown Bioscience, Inc., batch number ALK 20110607); DTT (Gibco BRL company, catalog No. 15508-012); MgCl2 (Sigma Aldrich company, catalog No. M-2670); ATP (Sigma Aldrich company, catalog No. A-7699); DMSO (AMRESCO company, catalog No. 0231); EDTA (AMRESCO company, catalog No. 0105); 96 wells plates (for diluting compounds) (CITOTEST company, catalog No. Ref36020096D); OptiPlate™-384 (White), PerkinElmer company, catalog No. P12-004)
(§3) ? experimental condition ? Compounds (the final concentration of DMSO was 1%), the reaction substrate (the final concentration was 1 μM), ATP (the final concentration was 2004), and Wildtype ALK kinases (the final concentration was 1 ng/μl) were mixed respectively in a final volume of 10 μl reaction system (containing 5 mM MgCl2, 1× Kinase buffer, and 1 mM DTT). The mixture was reacted at 30° C. for 35 minutes after shaking for 30 seconds. After completion of the reaction, each well was added with 5 μl Sa-XL665 and 5 μl TK Antibody-Eu(K), and placed in the dark for 60 minutes to end the reaction after uniform mixing. The data was read from PerkinElmer EnVision plate reader ([…]), the 665/615 ratio was calculated, and the data was analyzed.
(§4) ? tested samples ? Compounds from the examples.
(§5) ? data analysis ? Minimum 665/615 ratio (Rmin, 665/615 ratio under the condition that 10.4 μM positive control drug LDK-378 was added)
(§6) Maximum 665/615 ratio (Rmax, 665/615 ratio under the condition that no compound was added)
(§7) Tested 665/615 ratio (Rcompound, 665/615 ratio under the condition that a given concentration of compound was added) Inhibition rate (%)=[1−(Rcompound−Rmin)/(Rmax−Rmin)]×100
(§8) ? data processing ? IC50 of compounds was calculated by using XLfit program in Excel.

cytochrome P450 1A2 = target: T2, cytochrome P450 1A2 (Homo sapiens, UniProt P05177); test: Inhibitory activity on cytochrome P450 1A2; assay type: in vitro ADME; conditions: no significant inhibition
T2 sequence (P05177 1-516): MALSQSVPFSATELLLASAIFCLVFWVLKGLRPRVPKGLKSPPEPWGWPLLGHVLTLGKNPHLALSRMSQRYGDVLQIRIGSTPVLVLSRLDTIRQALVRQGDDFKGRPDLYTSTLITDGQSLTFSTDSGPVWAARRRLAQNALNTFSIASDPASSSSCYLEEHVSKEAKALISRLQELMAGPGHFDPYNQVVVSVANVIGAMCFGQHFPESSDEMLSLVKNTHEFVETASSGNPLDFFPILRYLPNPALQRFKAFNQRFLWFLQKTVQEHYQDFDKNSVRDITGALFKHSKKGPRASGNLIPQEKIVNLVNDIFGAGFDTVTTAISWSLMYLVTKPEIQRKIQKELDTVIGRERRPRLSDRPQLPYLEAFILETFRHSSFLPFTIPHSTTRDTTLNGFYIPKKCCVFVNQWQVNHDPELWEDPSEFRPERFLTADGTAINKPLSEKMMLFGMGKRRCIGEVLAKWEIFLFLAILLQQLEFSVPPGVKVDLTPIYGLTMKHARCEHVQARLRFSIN

cytochrome P450 3A4 = cytochrome P450 3A4 (Homo sapiens, UniProt P08684); test: Inhibitory activity on cytochrome P450 3A4; assay type: in vitro ADME; conditions: no significant inhibition
cytochrome P450 2C19 = cytochrome P450 2C19 (Homo sapiens, UniProt P33261); test: Inhibitory activity on cytochrome P450 2C19; assay type: in vitro ADME; conditions: no significant inhibition
cytochrome P450 2C9 = cytochrome P450 2C9 (Homo sapiens, UniProt P11712); test: Inhibitory activity on cytochrome P450 2C9; assay type: in vitro ADME; conditions: no significant inhibition
cytochrome P450 2D6 = cytochrome P450 2D6 (Homo sapiens, UniProt P10635); test: Inhibitory activity on cytochrome P450 2D6; assay type: in vitro ADME; conditions: no significant inhibition
L1196M mutant ALK kinase = target: T3, L1196M mutant ALK kinase (Homo sapiens, UniProt Q9UM73, L1196M); test: HTRF KinEASE-TK assay, inhibitory activity on L1196M mutant ALK kinase; assay type: biochemical; conditions: L1196M mutant ALK 1 ng/μl, substrate 1 μM, ATP 5 μM, 30° C. 35 minutes, read-out: Inhibition on ALK kinases (L1196M mutant), IC50
T3 construct: purchased Sino-US Crown Bioscience, Inc. batch number ALKm_20110923
Text: 2. Inhibitory Activities of the Compounds of the Present Invention on L1196M Mutant ALK Kinases
? experimental method ? HTRF KinEASE™-TK Assay kit from Cisbio company was used to detect inhibitory activities of the compounds on L1196M mutant ALK kinases.
as §1
as §2, with “L1196M mutant” for “Wild Type”, “ALKm_20110923);” for “ALK 20110607);”, “A-7699, batch number 051M7014V);” for “A-7699);”
as §3, with “5 μM),” for “2004),”, “L1196M mutant” for “Wildtype”
as §4, §5, §6, §7, §8

NCI-H2228 cell line = test: CellTiter-Glo cell proliferation inhibition on NCI-H2228 cell line; assay type: cell-based; conditions: Homo sapiens, NCI-H2228 cells, 5000 cells/well, 4 days drug treatment
Outline: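 NCI-H2228 cells, 5000/well in RPMI-1640 + 10% FBS, treated with compounds 2 h after seeding (0.5% DMSO final) for 4 days at 37° C. Viability by CellTiter-Glo luminescence; inhibition relative to DMSO control, IC50 from curve fit.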

Karpas-299 cell line = test: CellTiter-Glo cell proliferation inhibition on Karpas-299 cell line; assay type: cell-based; conditions: Homo sapiens, 96 h, Karpas-299 cells, 5000 cells/well, 4 days drug treatment
Experimental: 4. Cell Proliferation Inhibitory Activities of the Compounds of the Present Invention on Karpas-299 Cell Line
? experimental method ? CellTiter-Glo® Luminescent Cell Viability Assay kit from Promega company was used to detect cell proliferation inhibitory activities of the compounds on Karpas-299 cell line.
? instrument ? Envision 2104 plate reader from PerKinElmer company; Vi-Cell XR cell counter from Beckman Counter company; MCO-18AIC CO2 incubator from SANYO company.
? experiment material ? CellTiter-Glo® Luminescent Cell Viability Assay Kit (Promega company, catalog No. G7573); Karpas-299 cell line (DSMZ, catalog No. ACC31); RPMI-1640 medium (HyClone company, catalog No. SH30809.01B); fetal bovine serum (FBS) (Gibco company, catalog No. 10099-141); PBS (HyClone company, catalog No. SH30256.01B); 96 wells cell culture plate (Corning company, catalog No. 3610); DMSO (AMRESCO company, catalog No. 0231); 96 wells plates (for diluting compounds) (CITOTEST company, catalog No. Ref36020096D);
? experimental condition ? Karpas-299 cells in exponential growth phase were collected and viable cells were counted by Vi-Cell XR cell counter. Cell suspension was adjusted to 62500 cells/ml with culture medium (RPMI-1640+10% FBS). 80 μl cell suspension was added into each well of 96 wells cell culture plate so that so that the final cell number of Karpas-299 cells was 5000 cells/well. The cells were cultivated in an incubator with an atmosphere of 37° C., 5% CO2 and 95% humidity for 2 hours and then each well was added with 20 μl compounds in RPMI-1640 medium solution (the final concentration of DMSO was 0.5%). 4 days after drug treatment, each well was added with 50 μl CellTiter-Glo solution which was previously thawed and equilibrated to room temperature, and mixed for 2 minutes with microplate shaker. After placing at room temperature for 10 minutes, luminescence reading value was measured with PerkinElmer Envision 2104 plate reader and the data was analyzed.
? tested samples ? Compounds of the examples.
Luminescence value of DMSO solvent control (Vvehicle control, which is the mean luminescence value from DMSO solvent control group)
Tested luminescence value (Vsample, which is the luminescence value from given concentration of compounds group) Inhibition rate (%)=(1−Vsample/Vvehicle control)×100
as §8

T1 sequence (Q9UM73 19-1620): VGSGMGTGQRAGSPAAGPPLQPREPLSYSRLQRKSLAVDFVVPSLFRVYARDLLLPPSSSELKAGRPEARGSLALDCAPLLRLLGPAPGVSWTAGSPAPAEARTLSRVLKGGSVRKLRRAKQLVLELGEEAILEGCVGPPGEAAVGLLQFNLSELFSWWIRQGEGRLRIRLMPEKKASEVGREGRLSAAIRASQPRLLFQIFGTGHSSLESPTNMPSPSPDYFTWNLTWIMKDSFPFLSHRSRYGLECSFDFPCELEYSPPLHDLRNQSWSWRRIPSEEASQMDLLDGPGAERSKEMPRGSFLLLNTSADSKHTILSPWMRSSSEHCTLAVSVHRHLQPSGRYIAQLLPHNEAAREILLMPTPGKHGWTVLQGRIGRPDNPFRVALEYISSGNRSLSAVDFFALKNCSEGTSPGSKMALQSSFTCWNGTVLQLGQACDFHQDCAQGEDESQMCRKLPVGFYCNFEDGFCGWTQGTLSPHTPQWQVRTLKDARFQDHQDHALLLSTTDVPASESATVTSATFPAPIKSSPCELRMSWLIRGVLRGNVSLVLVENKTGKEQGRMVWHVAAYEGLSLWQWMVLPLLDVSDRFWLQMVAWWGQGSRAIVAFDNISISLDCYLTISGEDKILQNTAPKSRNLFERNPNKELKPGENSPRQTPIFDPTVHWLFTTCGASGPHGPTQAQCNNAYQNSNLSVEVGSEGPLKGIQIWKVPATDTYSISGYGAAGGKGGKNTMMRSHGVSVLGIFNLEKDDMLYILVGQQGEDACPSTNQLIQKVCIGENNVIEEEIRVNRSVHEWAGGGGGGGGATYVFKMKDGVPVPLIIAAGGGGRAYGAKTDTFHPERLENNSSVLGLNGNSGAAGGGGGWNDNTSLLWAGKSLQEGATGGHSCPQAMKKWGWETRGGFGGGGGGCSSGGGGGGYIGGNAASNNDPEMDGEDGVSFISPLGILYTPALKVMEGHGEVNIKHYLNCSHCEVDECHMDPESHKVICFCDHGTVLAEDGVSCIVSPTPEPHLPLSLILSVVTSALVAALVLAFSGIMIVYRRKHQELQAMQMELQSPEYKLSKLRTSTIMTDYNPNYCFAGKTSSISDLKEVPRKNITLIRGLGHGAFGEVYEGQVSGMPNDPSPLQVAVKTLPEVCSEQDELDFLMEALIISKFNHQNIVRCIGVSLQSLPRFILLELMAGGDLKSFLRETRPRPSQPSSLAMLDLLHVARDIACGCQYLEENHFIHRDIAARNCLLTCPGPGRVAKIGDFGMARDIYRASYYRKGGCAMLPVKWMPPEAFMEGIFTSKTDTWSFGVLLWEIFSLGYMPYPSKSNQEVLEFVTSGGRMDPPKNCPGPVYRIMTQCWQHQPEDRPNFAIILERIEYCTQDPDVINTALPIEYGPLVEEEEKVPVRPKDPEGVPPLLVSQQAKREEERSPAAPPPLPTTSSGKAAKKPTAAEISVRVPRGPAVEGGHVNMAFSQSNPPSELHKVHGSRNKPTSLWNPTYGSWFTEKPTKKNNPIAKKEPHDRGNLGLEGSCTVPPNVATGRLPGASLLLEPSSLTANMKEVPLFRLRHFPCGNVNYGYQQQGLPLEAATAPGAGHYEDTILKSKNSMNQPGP
Chain of cytochrome P450 2C9 (P11712 whole entry): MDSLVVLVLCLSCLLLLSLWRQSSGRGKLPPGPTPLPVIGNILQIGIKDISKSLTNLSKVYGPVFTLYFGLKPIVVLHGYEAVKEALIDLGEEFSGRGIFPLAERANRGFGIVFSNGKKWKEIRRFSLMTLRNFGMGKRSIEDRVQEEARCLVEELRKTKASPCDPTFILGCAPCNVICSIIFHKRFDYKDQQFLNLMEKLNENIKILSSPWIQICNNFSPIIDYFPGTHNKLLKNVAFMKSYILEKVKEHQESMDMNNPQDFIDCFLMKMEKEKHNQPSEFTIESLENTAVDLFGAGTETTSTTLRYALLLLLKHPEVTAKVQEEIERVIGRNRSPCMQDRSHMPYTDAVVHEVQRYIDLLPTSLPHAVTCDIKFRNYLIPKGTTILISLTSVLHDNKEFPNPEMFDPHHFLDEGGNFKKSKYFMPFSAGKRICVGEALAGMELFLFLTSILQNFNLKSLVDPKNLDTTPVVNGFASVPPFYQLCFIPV
Chain of cytochrome P450 3A4 (P08684 whole entry): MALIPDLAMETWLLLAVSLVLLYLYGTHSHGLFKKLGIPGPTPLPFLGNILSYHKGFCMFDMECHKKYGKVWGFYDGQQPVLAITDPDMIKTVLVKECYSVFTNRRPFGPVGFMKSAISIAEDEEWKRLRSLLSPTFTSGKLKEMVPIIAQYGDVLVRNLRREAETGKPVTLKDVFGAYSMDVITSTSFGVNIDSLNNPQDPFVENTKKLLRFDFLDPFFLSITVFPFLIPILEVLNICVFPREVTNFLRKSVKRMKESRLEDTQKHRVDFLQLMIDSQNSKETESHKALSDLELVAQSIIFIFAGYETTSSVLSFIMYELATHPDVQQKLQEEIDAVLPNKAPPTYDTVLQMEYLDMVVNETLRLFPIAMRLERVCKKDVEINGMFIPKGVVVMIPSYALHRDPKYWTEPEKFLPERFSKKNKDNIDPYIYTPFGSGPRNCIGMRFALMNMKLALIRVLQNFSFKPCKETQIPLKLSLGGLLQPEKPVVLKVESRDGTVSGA
T3 sequence (Q9UM73 19-1620 L1196M): as the sequence (Q9UM73 19-1620) above, with L1178M counted along it
Chain of cytochrome P450 2D6 (P10635 whole entry): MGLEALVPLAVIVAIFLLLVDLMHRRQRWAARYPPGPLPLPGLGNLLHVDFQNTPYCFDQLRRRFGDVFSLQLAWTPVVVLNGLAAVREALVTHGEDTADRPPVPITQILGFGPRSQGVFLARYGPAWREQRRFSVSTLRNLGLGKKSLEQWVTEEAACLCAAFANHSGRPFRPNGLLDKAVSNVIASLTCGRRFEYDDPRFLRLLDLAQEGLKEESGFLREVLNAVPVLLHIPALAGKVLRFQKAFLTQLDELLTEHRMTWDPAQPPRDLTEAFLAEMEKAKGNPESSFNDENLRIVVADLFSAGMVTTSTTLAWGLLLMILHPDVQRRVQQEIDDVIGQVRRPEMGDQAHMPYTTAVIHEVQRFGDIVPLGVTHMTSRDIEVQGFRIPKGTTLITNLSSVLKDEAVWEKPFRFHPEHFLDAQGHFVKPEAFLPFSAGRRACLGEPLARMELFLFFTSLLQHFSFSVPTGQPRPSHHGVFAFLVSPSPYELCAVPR
Chain of cytochrome P450 2C19 (P33261 whole entry): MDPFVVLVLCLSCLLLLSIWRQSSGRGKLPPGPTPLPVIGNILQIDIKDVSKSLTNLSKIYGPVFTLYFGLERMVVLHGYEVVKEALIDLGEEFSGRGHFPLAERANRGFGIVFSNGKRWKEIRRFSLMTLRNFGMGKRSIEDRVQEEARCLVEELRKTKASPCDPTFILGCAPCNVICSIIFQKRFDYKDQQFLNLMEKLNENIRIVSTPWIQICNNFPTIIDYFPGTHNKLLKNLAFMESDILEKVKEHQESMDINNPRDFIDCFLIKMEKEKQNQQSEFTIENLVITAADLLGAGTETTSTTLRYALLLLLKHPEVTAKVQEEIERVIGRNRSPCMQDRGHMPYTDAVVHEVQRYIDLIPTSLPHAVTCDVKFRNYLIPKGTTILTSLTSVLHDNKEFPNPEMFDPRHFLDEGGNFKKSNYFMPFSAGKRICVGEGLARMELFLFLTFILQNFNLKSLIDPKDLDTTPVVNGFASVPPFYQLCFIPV

SMILES | IC50 (Wild Type ALK kinase) [nM] | IC50 (cytochrome P450 1A2) [µM] | IC50 (cytochrome P450 3A4) [µM] | IC50 (cytochrome P450 2C19) [µM] | IC50 (cytochrome P450 2C9) [µM] | IC50 (cytochrome P450 2D6) [µM] | IC50 (L1196M mutant ALK kinase) [nM] | IC50 (NCI-H2228 cell line; NCI-H2228, 96 h) [nM] | IC50 (Karpas-299 cell line) [nM] | IC50 (NCI-H2228 cell line; 96 h) [nM]
Cc1cc(Nc2ncc(Cl)c(Nc3cn(C)nc3S(=O)(=O)C(C)C)n2)c(OC(C)C)cc1C1CCN(C)CC1 [Final product 80] | 4 | > 10 | > 10 | > 10 | > 10 | > 10 | 8 |  |  | 
Cc1cc(Nc2ncc(Cl)c(Nc3cn(C)nc3S(=O)(=O)C(C)C)n2)c(OC(C)C)cc1C1CC(C)N(C)C(C)C1 (stereo not shown) [Final product 97] |  | > 10 | > 10 | > 10 | > 10 | > 10 |  | 154 |  | 
CCN1CCC(c2cc(OC3CC3)c(Nc3ncc(Cl)c(Nc4cn(C)nc4S(=O)(=O)C(C)C)n3)cc2C)CC1 [Final product 114, 5-chloro-N^2-[2-cyclopropoxy-4-(1-ethylpiperidin-4-yl)-5-methylphenyl]-N^4-[1-methyl-3-(isopropylsulfonyl)-1H-pyrazol-4-yl]-pyrimidin-2,4-diamine] |  | > 10 | > 10 | > 10 | > 10 | > 10 |  |  | 10 | 70

Second part, led by results:

IC50 (Wild Type ALK kinase) [nM] | IC50 (cytochrome P450 1A2) [µM] | IC50 (cytochrome P450 3A4) [µM] | IC50 (cytochrome P450 2C19) [µM] | IC50 (cytochrome P450 2C9) [µM] | IC50 (cytochrome P450 2D6) [µM] | IC50 (L1196M mutant ALK kinase) [nM] | IC50 (NCI-H2228 cell line; NCI-H2228, 96 h) [nM] | SMILES | IC50 (Karpas-299 cell line) [nM] | IC50 (NCI-H2228 cell line; 96 h) [nM]
3 | > 10 | > 10 | > 10 | > 10 | > 10 | 4 |  | CC(C)S(=O)(=O)c1nn(C)cc1Nc1nc(Nc2cc(F)c(C3CCN(C)CC3)cc2OC2CC2)ncc1Cl [Final product 44] |  | 
2 | > 10 | > 10 | > 10 | > 10 | > 10 | 4 |  | Cc1cc(Nc2ncc(Cl)c(Nc3cn(C)nc3S(=O)(=O)C(C)C)n2)c(OC2CC2)cc1C1CCN(C)CC1 [Final product 51] |  | 
 | > 10 | > 10 | > 10 | > 10 | > 10 |  | 141 | Cc1cc(Nc2ncc(Cl)c(Nc3cn(C)nc3S(=O)(=O)C(C)C)n2)c(OC2CC2)cc1C1CCC(N2CCN(C)CC2)CC1 (stereo not shown) [Final product 202] |  | 
